These results are taken from paper PMC6954902 (Protein & Cell, 2019).

Experiment [1] addresses T1, MtEccC5-ATPase3 (Mycobacterium tuberculosis, UniProt P9WNA5).
T1 construct: gene eccC5

In experiment [2] the target is T2, MtEccC2-ATPase3 (Mycobacterium tuberculosis, UniProt O05450).
T2 construct: gene eccC2

Experiment [3] deals with T3, MtEccC3-ATPase3 (Mycobacterium tuberculosis, UniProt P9WNA9).
T3 construct: gene eccC3
T3 sequence (P9WNA9 1060-1330): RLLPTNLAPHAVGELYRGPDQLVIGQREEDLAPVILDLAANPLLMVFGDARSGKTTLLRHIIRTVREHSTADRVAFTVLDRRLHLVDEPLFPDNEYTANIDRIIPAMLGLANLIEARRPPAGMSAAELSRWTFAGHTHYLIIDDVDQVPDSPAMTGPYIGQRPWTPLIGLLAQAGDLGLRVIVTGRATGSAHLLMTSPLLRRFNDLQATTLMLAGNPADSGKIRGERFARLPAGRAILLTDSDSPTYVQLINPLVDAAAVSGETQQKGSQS

T1 sequence (P9WNA5 1125-1391): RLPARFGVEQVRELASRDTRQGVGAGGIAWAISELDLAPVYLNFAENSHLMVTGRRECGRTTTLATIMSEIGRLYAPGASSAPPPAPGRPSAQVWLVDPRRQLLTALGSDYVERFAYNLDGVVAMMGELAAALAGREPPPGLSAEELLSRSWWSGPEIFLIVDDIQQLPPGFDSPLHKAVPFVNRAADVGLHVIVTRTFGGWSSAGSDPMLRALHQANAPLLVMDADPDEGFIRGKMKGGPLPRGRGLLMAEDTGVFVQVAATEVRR
T2 sequence (O05450 1127-1396 limits assumed): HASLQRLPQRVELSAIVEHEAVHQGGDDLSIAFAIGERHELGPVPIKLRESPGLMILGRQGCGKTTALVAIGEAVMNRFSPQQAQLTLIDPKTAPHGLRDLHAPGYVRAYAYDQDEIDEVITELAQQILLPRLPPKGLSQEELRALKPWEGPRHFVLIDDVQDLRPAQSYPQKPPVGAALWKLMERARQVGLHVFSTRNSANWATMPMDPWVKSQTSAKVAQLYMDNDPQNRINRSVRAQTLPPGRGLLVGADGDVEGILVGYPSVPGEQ

Take `Nc1ncnc2c1ncn2[C@@H]1O[C@H](COP(=O)(O)OP(=O)(O)OP(=O)(O)O)[C@@H](O)[C@H]1O` [ATP]: the X-ray crystal structure result in experiment [1] is “In our structures, ATP and a magnesium ion bind to the nucleotide-binding site”; in experiment [2] it was “In our structures, ATP and a magnesium ion bind to the nucleotide-binding site”; in experiment [3] it was “In our structures, ATP and a magnesium ion bind to the nucleotide-binding site”.
